The text below walks through data of paper PMC8887546, “Design and Synthesis of Brain Penetrant Glycopeptide Analogues of PACAP With Neuroprotective Potential for Traumatic Brain Injury and Parkinsonism” (Frontiers in drug discovery, 2022).

The test concerns Sprague Dawley rats, 6-OHDA lesion. Description: Unbiased stereology of TH-positive neurons in SNc (study 2). The settings on record: more severe (40%) lesion. The class given is in vivo, rat. The protocol:
Rats were treated with 2LS98Lac or saline (vehicle) as outlined in the Schemes in Figures 9A,B via intraperitoneal (i.p.) injection (15 mg/kg). All animals were made hemi-parkinsonian with unilateral, striatal 6-hydroxydopamine (Sigma Aldrich, St. Louis, MO) injections. After surgery, behavioral assessments were done at 2- and 4-weeks post-surgery. 24 h after the last test animals were either euthanized and whole brains were harvested for future biochemical analysis or perfused and brains collected for immunohistochemistry and stereological assessment of tyrosine hydroxylase-positive (TH+) cells remaining in the SNc. In study 1: n = 16 each group were included, and all underwent the behavioral analysis: n = 16, and for the stereology in the SNc, n = 8 each group was used. In study 2: n = 23 each group were included. […]
Stereological probes were applied using a Zeiss Imager M2 microscope (Carl Zeiss, Jena, Germany) equipped with StereoInvestigator software (MBF Bioscience, VT, United States) according to previously published methods ([Corenblum et al., 2015]; [Anandhan et al., 2021]). Using the optical fractionator probe, cells were counted under the ×63 oil immersion objective by a blinded observer. TH+ cells were counted in sections 480 μm apart using a grid size of 170 × 100 μm and counting frame size of 75 × 75 μm. […]

As to `[2H]C([2H])([2H])C([2H])(C([2H])([2H])[2H])[C@]([2H])(NC(=O)[C@H](C)NC(=O)[C@H](C)NC(=O)[C@H](CC(C)C)NC(=O)[C@H](Cc1ccc(O)cc1)NC(=O)[C@H](CCCCN)NC(=O)[C@H](CCCCN)NC(=O)[C@@]([2H])(NC(=O)[C@H](C)NC(=O)[C@H](CC(C)C)NC(=O)[C@H](CCC(N)=O)NC(=O)[C@H](CCCCN)NC(=O)[C@H](CCCNC(=N)N)NC(=O)[C@H](Cc1ccc(O)cc1)NC(=O)[C@H](CCCNC(=N)N)NC(=O)[C@H](CO)NC(=O)[C@H](Cc1ccc(O)cc1)NC(=O)[C@H](CO)NC(=O)[C@H](CC(=O)O)NC(=O)[C@@H](NC(=O)[C@H](Cc1ccccc1)NC(=O)[C@@H](NC(=O)CNC(=O)[C@H](CC(=O)O)NC(=O)[C@H](CO)NC(=O)[C@@H](N)Cc1c[nH]cn1)[C@@H](C)CC)[C@@H](C)O)C([2H])(C([2H])([2H])[2H])C([2H])([2H])[2H])C(=O)N[C@@H](CC(C)C)C(=O)N[C@@H](CO[C@@H]1O[C@H](CO)[C@@H](O[C@@H]2O[C@H](CO)[C@H](O)[C@H](O)[C@H]2O)[C@H](O)[C@H]1O)C(N)=O` [Compound 2LS98Lac], the “Mean increase of nigral TH cells on the lesioned side vs vehicle” value (not significant (p = 0.2208)) worked out at 850 cells. The “Nigral TH-cell count on the lesioned side” value (three injections 15 mg/kg i.p., mean, vehicle 8,391) is 9,244 cells.
